Data on 3 compounds can be found in ChEMBL document CHEMBL4420076, “Amylin and calcitonin receptor agonist” (2017).

Numbered stars: 1 amine (or outer) side, 2 acyl side, 3 side chain; on linkers, the order of the positions; unused ones are H or OH. Peptide text beside a SMILES is read from it. * marks the point of attachment. C20 diacid = O=C(O)CCCCCCCCCCCCCCCCCCC(=O)*; γGlu = O=C(O)[C@H](CCC(=O)[*:2])N[*:1]

Data set [1] has as its target T1, Calcitonin receptor (Homo sapiens, UniProt P30988).
T1 sequence (P30988 whole entry): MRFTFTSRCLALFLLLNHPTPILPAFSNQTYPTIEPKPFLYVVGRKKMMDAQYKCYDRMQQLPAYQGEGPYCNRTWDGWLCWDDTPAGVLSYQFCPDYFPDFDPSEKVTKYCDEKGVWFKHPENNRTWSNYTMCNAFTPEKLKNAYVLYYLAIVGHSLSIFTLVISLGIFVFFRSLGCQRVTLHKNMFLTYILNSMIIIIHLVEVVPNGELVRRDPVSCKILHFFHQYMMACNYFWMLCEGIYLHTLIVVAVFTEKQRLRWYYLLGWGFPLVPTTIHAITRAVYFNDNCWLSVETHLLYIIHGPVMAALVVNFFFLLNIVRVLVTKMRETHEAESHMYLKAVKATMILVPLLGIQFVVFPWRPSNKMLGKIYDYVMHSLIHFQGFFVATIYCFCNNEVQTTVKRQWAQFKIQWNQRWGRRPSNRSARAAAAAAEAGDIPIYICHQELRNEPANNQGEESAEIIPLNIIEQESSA
Description: Agonist activity at human calcitonin receptor expressed in BHK570 cells assessed as increase in intracellular cAMP concentration incubated for 3 hrs in presence of 10% FBS by CRE luciferase reporter gene assay. Format: functional, cell-based. Background: A reporter such as luciferase makes a cellular process visible.

Data set [2] is described as follows: Solubility in 100 mM glycylglycine buffer at pH 3.0 incubated for 18 hrs by UPLC analysis. Format: physicochemical.
Data set [3] in a line: Solubility in 100 mM bistrispropane buffer at pH 7.5 incubated for 18 hrs by UPLC analysis. Format: physicochemical.
The nature of data set [4]: Solubility in 100 mM bistrispropane buffer at pH 7.0 incubated for 18 hrs by UPLC analysis. Format: physicochemical.
Data set [5] in a line: Solubility in 100 mM bistrispropane buffer at pH 8.0 incubated for 18 hrs by UPLC analysis. Format: physicochemical.
The target of data set [6] is T2, Amylin receptor AMY3; CALCR/RAMP3 (Homo sapiens, UniProt O60896+P30988).
T2 sequence (P30988 whole entry): T1 sequence (P30988 whole entry)
T2 sequence (O60896 whole entry): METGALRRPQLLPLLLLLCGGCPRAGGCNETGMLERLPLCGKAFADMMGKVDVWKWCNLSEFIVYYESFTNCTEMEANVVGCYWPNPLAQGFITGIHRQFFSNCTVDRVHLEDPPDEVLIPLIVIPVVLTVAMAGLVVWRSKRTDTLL
Description: Displacement of [125I]-labeled rat amylin from human amylin receptor expressed in BHK570 cell membranes co-expressing RAMP3 incubated for 120 mins by scintillation proximity assay. A general note: In a radioligand displacement assay an active substance lowers the binding of a labelled ligand.

The subject of data set [7] is Rattus norvegicus. Description: Reduction in food intake in Sprague-Dawley rat at 3 nmol/kg measured 24 to 48 hrs post dose relative to control. Format: functional. Also on record: scale not given: the % may be the effect or the level left.
The target of data set [8] is T1, Calcitonin receptor. The experiment in a line: Displacement of [125I]-labeled human calcitonin from human calcitonin receptor expressed in BHK tkts13 cell membranes incubated for 1 hr by scintillation proximity assay.
Data set [9] can be described thus: Stability in pH 7.5 buffer assessed as compound recovery at 1 uM by Thioflavin T based fluorescence assay. The conditions noted are these: read-out: Drug recovery. Format: physicochemical.
The target in data set [10] is T2, Amylin receptor AMY3; CALCR/RAMP3. Description: Agonist activity at human amylin receptor expressed in BHK570 cells co-expressing RAMP3 assessed as increase in intracellular cAMP concentration incubated for 3 hrs in absence of albumin by CRE luciferase reporter gene assay. The data set is classed as functional, cell-based.
For data set [11], the target named is T1, Calcitonin receptor. Description: Agonist activity at human calcitonin receptor expressed in BHK570 cells assessed as increase in intracellular cAMP concentration incubated for 3 hrs in absence of albumin by CRE luciferase reporter gene assay. The data set is classed as functional, cell-based.
The nature of data set [12]: Solubility in 100 mM bistrispropane buffer at pH 6.5 incubated for 18 hrs by UPLC analysis. The data set is classed as physicochemical.
For data set [13], the target named is T3, Amylin receptor AMY3; CALCR/RAMP3 (Rattus norvegicus, UniProt P32214+Q9JJ73).
T3 sequence (P32214 whole entry): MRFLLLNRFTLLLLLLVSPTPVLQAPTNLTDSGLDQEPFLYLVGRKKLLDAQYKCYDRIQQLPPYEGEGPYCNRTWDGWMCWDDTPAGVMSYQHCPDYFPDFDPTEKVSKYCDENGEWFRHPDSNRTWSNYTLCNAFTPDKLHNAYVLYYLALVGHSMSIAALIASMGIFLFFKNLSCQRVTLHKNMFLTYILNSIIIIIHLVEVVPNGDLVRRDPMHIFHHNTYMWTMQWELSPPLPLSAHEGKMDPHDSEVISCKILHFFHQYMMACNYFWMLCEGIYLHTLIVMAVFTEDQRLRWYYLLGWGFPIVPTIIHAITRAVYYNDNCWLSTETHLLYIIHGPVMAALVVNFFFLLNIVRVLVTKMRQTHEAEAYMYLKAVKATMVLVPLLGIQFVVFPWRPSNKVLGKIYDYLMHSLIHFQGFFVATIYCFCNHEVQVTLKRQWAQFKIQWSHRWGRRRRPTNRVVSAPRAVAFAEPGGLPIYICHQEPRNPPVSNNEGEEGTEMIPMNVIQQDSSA
T3 sequence (Q9JJ73 whole entry): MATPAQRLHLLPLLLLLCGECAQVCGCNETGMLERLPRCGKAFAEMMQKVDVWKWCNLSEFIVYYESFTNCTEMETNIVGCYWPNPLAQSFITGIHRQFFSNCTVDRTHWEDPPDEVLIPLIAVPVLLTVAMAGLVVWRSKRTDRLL
Description: Displacement of [125I]-labeled rat amylin from rat amylin receptor expressed in BHK tkts13 cell membranes co-expressing RAMP3 incubated for 120 mins by scintillation proximity assay.

A short description of data set [14]: Solubility in 100 mM bistrispropane buffer at pH 6.0 incubated for 18 hrs by UPLC analysis. The data set is classed as physicochemical.
A short description of data set [15]: Stability in pH 7.5 buffer assessed as lag time for fibril formation at 1 uM by Thioflavin T based fluorescence assay. To be noted: pH 7.5, 1 µM. The data set is classed as physicochemical.
For data set [16], the system named is Rattus norvegicus. The experiment in a line: Reduction in food intake in Sprague-Dawley rat at 3 nmol/kg measured 0 to 24 hrs post dose relative to control. The data set is classed as functional. Also on record: scale not given: the % may be the effect or the level left.
A short description of data set [17]: Solubility in 100 mM glycylglycine buffer at pH 4.0 incubated for 18 hrs by UPLC analysis. The data set is classed as physicochemical.
Data set [18] can be described thus: Solubility in 100 mM glycylglycine buffer at pH 5.0 incubated for 18 hrs by UPLC analysis. Format: physicochemical.
In data set [19] the target is T2, Amylin receptor AMY3; CALCR/RAMP3. The experiment in a line: Displacement of [125I]-labeled rat amylin from human amylin receptor expressed in BHK tkts13 whole cells co-expressing RAMP3 incubated for 60 mins by scintillation proximity assay. The data set is classed as cell-based.

With `CC(C)C[C@H](NC(=O)CNC(=O)[C@H](CO)NC(=O)[C@H](C)NC(=O)CC[C@H](NC(=O)CCCCCCCCCCCCCCCCCCC(=O)O)C(=O)O)C(=O)N[C@@H](CO)C(=O)N[C@H](C(=O)N[C@@H](C)C(=O)N[C@H](C(=O)N[C@@H](CC(C)C)C(=O)NCC(=O)N[C@@H](CCCNC(=N)N)C(=O)N[C@@H](CC(C)C)C(=O)N[C@@H](CO)C(=O)N[C@@H](CCC(N)=O)C(=O)N[C@@H](CCC(=O)O)C(=O)N[C@@H](CC(C)C)C(=O)N[C@@H](Cc1cnc[nH]1)C(=O)N[C@@H](CCC(=O)O)C(=O)N[C@@H](CC(C)C)C(=O)N[C@@H](CCC(N)=O)C(=O)N[C@H](C(=O)N[C@@H](Cc1ccc(O)cc1)C(=O)N1CCC[C@H]1C(=O)N[C@@H](CCCNC(=N)N)C(=O)N[C@H](C(=O)N[C@@H](CCC(=O)O)C(=O)N[C@H](C(=O)NCC(=O)N[C@@H](CO)C(=O)N[C@@H](CCC(N)=O)C(=O)N[C@H](C(=O)N[C@@H](Cc1ccc(O)cc1)C(N)=O)[C@@H](C)O)[C@@H](C)O)[C@@H](C)O)[C@@H](C)O)C(C)C)[C@@H](C)O` ({C20 diacid-γGlu}-ASGLSTAVLGRLSQELHELQTYPRTETGSQTY-NH2), the results for the EC50 (at Calcitonin receptor [1]; in data set [10]; on Calcitonin receptor [11]) were 0.061 nM, 0.072 nM and 0.049 nM, respectively. For the same compound, the solubility at 18 h in data set [2], in data set [3], in data set [4], in data set [5], in data set [12] and in [14] was ≥ 200 µM each time. Also, the figures for the half-inhibitory concentration (IC50) (in [6]; on Calcitonin receptor [8]; in data set [13]) were 0.152 nM, 0.067 nM and 0.053 nM, respectively. The Activity is given as 29% in the data set on Rattus norvegicus [7] and 25% in the data set with Rattus norvegicus [16]. The remaining at 1 µM in [9] came to 39.5%. Besides, the Time in data set [15] stood at 1.5 h.

For the compound `CC(C)C[C@H](NC(=O)CNC(=O)[C@H](CO)NC(=O)[C@H](C)NC(=O)CC[C@H](NC(=O)CCCCCCCCCCCCCCCCCCC(=O)O)C(=O)O)C(=O)N[C@@H](CO)C(=O)N[C@H](C(=O)N[C@@H](C)C(=O)N[C@@H](C)C(=O)N[C@@H](CC(C)C)C(=O)NCC(=O)N[C@@H](CCCNC(=N)N)C(=O)N[C@@H](CC(C)C)C(=O)N[C@@H](CO)C(=O)N[C@@H](CCC(N)=O)C(=O)N[C@@H](CCC(=O)O)C(=O)N[C@@H](CC(C)C)C(=O)N[C@@H](Cc1cnc[nH]1)C(=O)N[C@@H](CCC(=O)O)C(=O)N[C@@H](CC(C)C)C(=O)N[C@@H](CCC(N)=O)C(=O)N[C@H](C(=O)N[C@@H](Cc1ccc(O)cc1)C(=O)N1CCC[C@H]1C(=O)N[C@@H](CCCNC(=N)N)C(=O)N[C@H](C(=O)N[C@@H](CCC(=O)O)C(=O)N[C@H](C(=O)NCC(=O)N[C@@H](CO)C(=O)N[C@@H](CCC(N)=O)C(=O)N[C@H](C(=O)N[C@@H](Cc1ccc(O)cc1)C(N)=O)[C@@H](C)O)[C@@H](C)O)[C@@H](C)O)[C@@H](C)O)[C@@H](C)O` ({C20 diacid-γGlu}-ASGLSTAALGRLSQELHELQTYPRTETGSQTY-NH2), the EC50 at Calcitonin receptor [1] is 0.108 nM; in [10] it was 0.037 nM; at Calcitonin receptor [11], 0.025 nM. Further, the solubility at 18 h in [2], in [3], in data set [4], in data set [5], in data set [17] and in [12] was ≥ 200 µM throughout. The solubility at 18 h in data set [14] was ≥ 200 µM. Besides, the values for the half-inhibitory concentration (IC50) (in data set [6]; at Calcitonin receptor [8]; in [13]) were 0.131 nM, 0.051 nM and 0.078 nM, respectively. Further, the Activity with Rattus norvegicus [7] came out at 42%; with Rattus norvegicus [16] it was 40%. Besides, in data set [9], the remaining at 1 µM stood at 100%. In addition, the Time in data set [15] is > 45 h.

For the compound `CC(C)C[C@H](NC(=O)[C@H](C)NC(=O)[C@H](C)NC(=O)[C@@H](NC(=O)[C@H](CO)NC(=O)[C@H](CC(C)C)NC(=O)[C@H](CCC(=O)O)NC(=O)[C@H](CO)NC(=O)[C@H](C)NC(=O)CC[C@H](NC(=O)CCCCCCCCCCCCCCCCCCC(=O)O)C(=O)O)[C@@H](C)O)C(=O)NCC(=O)N[C@@H](CCCNC(=N)N)C(=O)N[C@@H](CC(C)C)C(=O)N[C@@H](CO)C(=O)N[C@@H](C)C(=O)N[C@@H](CCC(=O)O)C(=O)N[C@@H](CC(C)C)C(=O)N[C@@H](Cc1cnc[nH]1)C(=O)N[C@@H](CCC(=O)O)C(=O)N[C@@H](CC(C)C)C(=O)N[C@@H](C)C(=O)N[C@H](C(=O)N[C@@H](CC(C)C)C(=O)N1CCC[C@H]1C(=O)N[C@@H](CCCNC(=N)N)C(=O)N[C@H](C(=O)N[C@@H](CCC(=O)O)C(=O)N[C@H](C(=O)NCC(=O)N[C@@H](CO)C(=O)NCC(=O)N[C@@H](CO)C(=O)N[C@@H](Cc1cnc[nH]1)C(N)=O)[C@@H](C)O)[C@@H](C)O)[C@@H](C)O` ({C20 diacid-γGlu}-ASELSTAALGRLSAELHELATLPRTETGSGSH-NH2), the concentration for a half-maximal effect (EC50) is 0.072 nM on Calcitonin receptor [1], 0.053 nM in [10] and 0.048 nM on Calcitonin receptor [11]. The solubility at 18 h in data set [2], in data set [18], in data set [3], in data set [4], in data set [5] and in [17] was ≥ 200 µM in each case. Besides, the solubility at 18 h in [12] and in data set [14] was ≥ 200 µM each time. Further, the 50% inhibitory concentration (IC50) was 0.057 nM in data set [6], 0.034 nM on Calcitonin receptor [8], 1.07 nM in [19] and 0.046 nM in data set [13]. Also, the remaining at 1 µM in data set [9] was 100%. In data set [15], the Time was > 45 h.

By EC50 is commonly meant the concentration at which the effect is half-maximal. Usually solubility stands for how much of the substance goes into solution per volume. The IC50 is the point on the concentration scale where inhibition reaches its midpoint.
